{
  "source": "patent US20210278408A1",
  "about": "“METHODS OF TREATMENT OF CANCER WITH SUBSTITUTED PYRROLE AND PYRAZOLE COMPOUNDS AND DIAGNOSIS OF CANCERS SUSCEPTIBLE TO TREATMENT WITH SUBSTITUTED PYRROLE AND PYRAZOLE COMPOUNDS” (Bantam Pharmaceutical, LLC, priority 2018, published 2021)",
  "test_system": "HCT-116 xenograft",
  "experiment": "Human tumor xenograft model, colorectal cancer cell line HCT-116",
  "assay_type": "in vivo",
  "protocol": "FIG. 10 is a set of graphs of in vivo treatment results for Athymic Nude mice engrafted with the DLBCL line SU-DHL-10 (left panel) or the CRC line HCT-116 (right panel). After 14 days, groups of mice (n=10 per group) were randomized by tumor volume and treated with Compound B19 (left panel) or Compound A197 (right panel). All animals dosed p.o. q.d. (orally once per day). Tumor burden was measured over 21 days. Compound B19 efficacy was monitored for 21 days following last dose to determine relapse. All data plotted as the mean±SEM, n=10 mice per group.\nThe positive results of the PK studies led to an evaluation of Compound A197 and Compound B19 in murine xenograft models of human tumors. Compound A197 was tested in a human tumor xenograft model using KRAS mutated colorectal cancer cell line HCT-116. Athymic nude mice (HSD:Athymic Nude-Foxn1 nu, Envigo) were inoculated subcutaneously with 5×10^6 HCT-116 cells in the right rear flank. The animals wethen staged and randomized by tumor size to achieve dose groups of 10 animals each with an average tumor volume of 150 mm^3. Tumor bearing mice were dosed once daily by oral gavage with a vehicle (5% NMP, 15% PEG400, 10% Solutol, and 70% D5W) or with A197 dissolved in vehicle to provide a dose concentration of 10 ml/kg. Compound B19 was tested in a human xenograft model using the human diffuse large B-cell lymphoma line SU-DHL-10 (ATCC). […]",
  "data": [
    {"smiles": "Cc1nn(-c2nc(-c3ccc(C(F)(F)F)cc3)c(SC(C)C)s2)c(C(=O)O)c1-c1cccc(F)c1", "note": "[Compound A197, 4-(3-fluorophenyl)-1-(5-(isopropylthio)-4-(4-(trifluoromethyl)phenyl)thiazol-2-yl)-3-methyl-1H-pyrazole-5-carboxylic acid]", "values": [
      {"measurement": "tumor growth in the solid tumor model", "setting": "HCT-116 xenograft, once daily oral gavage, 21 days, p<01 for 75 and 30 mpk doses", "value": "significantly slower growth"},
      {"measurement": "tolerability, signs of toxicity", "setting": "markers of liver function, metabolism, and myelopoiesis, tumor bearing mice (data not shown)", "value": "well-tolerated with no overt signs of toxicity"}
    ]}
  ]
}
